Here are results for four molecules from patent US5773029A, “High solubility multicomponent inclusion complexes consisting of an acidic drug, a cyclodextrin and a base” (Chiesi Farmaceutici S.p.A., priority 1994, dated 1998).

One data set in a line: physchem. An excerpt: Equilibrium solubility, at room temperature,
at different pH values, of Glibenclamide (G), its
sodium salt (G--Na), and a physical mixture thereof with
βCD (G/βCD) in a 1:1, 1:2, 1:3.
Equilibrium solubility (eq.) and instant solubility
at various times, at room temperature, at different pH values, […]

Data set [1] can be described thus: Dissolution: glibenclamide concentration versus time at room temperature in buffer (Table 3). Format: physicochemical.
The conditions of data set [2]: cited from earlier work.

In brackets after ≈: the same amount, converted by molar mass. Some results are limits rather than exact numbers.

Broadly, the thermodynamic solubility is solubility found after equilibrating the solid with the medium. As for `COc1ccc(Cl)cc1C(=O)NCCc1ccc(S(=O)(=O)NC(=O)NC2CCCCC2)cc1` [G--Na], the solubility (thermodynamic) in the data set “physchem” (pH 9.3) was found to be 7000 µg/mL (≈ 14200 µM).
Molecule `NS(=O)(=O)c1cc2c(cc1Cl)N=CNS2(=O)=O` [Chlorothiazide] came in with a solubility (thermodynamic) in the data set “physchem” of 400 to 700 µg/mL (≈ 1350 to 2370 µM).
`CN1C(C(=O)Nc2ccccn2)=C(O)c2ccccc2S1(=O)=O` [P, Piroxicam]: the thermodynamic solubility in “physchem” (pH 1.2) is 108 µg/mL (≈ 326 µM); in the data set “physchem” (pH 6), 76 µg/mL (≈ 229 µM); in the data set “physchem” (pH 7), 570 µg/mL (≈ 1720 µM); in “physchem” (pH 7.5), 1030 µg/mL (≈ 3110 µM).
A word on the pKa: it is the negative logarithm of the acid dissociation constant. In the case of `COc1ccc(Cl)cc1C(=O)NCCc1ccc(S(=O)(=O)NC(=O)NC2CCCCC2)cc1` [G, Glibenclamide], the “Glibenclamide concentration by dissolution” value was under 0.01 mg/mL in data set [1] (pH 1.4, 05 min); under 0.01 mg/mL in data set [1] (pH 1.4, 15 min); under 0.01 mg/mL in data set [1] (pH 1.4, 30 min); under 0.01 mg/mL in data set [1] (pH 1.4, 40 min); under 0.01 mg/mL in data set [1] (pH 1.4, 50 min); under 0.01 mg/mL in data set [1] (pH 5.0, 05 min). Moreover, the “Glibenclamide concentration by dissolution” value in data set [1] (pH 5.0, 10 min) was under 0.01 mg/mL; in data set [1] (pH 5.0, 20 min) it was under 0.01 mg/mL; in data set [1] (pH 5.0, 40 min), under 0.01 mg/mL; in data set [1] (pH 5.0, 50 min) it was under 0.01 mg/mL. The pKa in data set [2] is 6.8. Besides, the solubility (thermodynamic) in “physchem” (pH 4) was 4 µg/mL (≈ 8.1 µM); in “physchem” (pH 7.39), 18.8 µg/mL (≈ 38.1 µM); in the data set “physchem” (pH 7.5), 20 µg/mL (≈ 40.5 µM); in “physchem” (pH 8.89) it was 299 µg/mL (≈ 605 µM); in “physchem” (pH 9), 600 µg/mL (≈ 1210 µM); in “physchem” (pH 9.53) it was 768 µg/mL (≈ 1550 µM).
